What all share (type): biochemical
The target in one test is T1, CDK2/cyclinE1 (Homo sapiens, UniProt P24941).
T1 construct: purchased Carna Biosciences 04-165
The test can be described thus: Cyclin-dependent kinase activity assay (continuous ATP coupling assay), CDK2/cyclinE1. To be noted: CDK2/cyclinE1 5 nM, ATP 300 μM, Rb copeptide 100 μM, 15 min preincubation, pH 7.5, 1% DMSO. Here is the method:
(§1) Cyclin-dependent kinase activity assay was measured by continuous ATP coupling assay in which ADP generated by kinase catalyzed phosphorylation was converted back to ATP by consuming phosphoenolpyruvate (PEP) and NADH catalyzed by pyruvate kinase/lactate dehydrogenase (PK/LDH). The assay compositions (see, Table 1) consist of one of the kinases, including CDK1/cyclinB1, CDK2/cyclinE1, CDK4/cyclinD3, and CDK6/cyclinD3 at the designated concentration, ATP at the corresponding Km of the kinase, copeptide and the ATP coupling system of PEP, NADH and PK/LDH. The assay was conducted in a reaction buffer of 20 mM Tris (pH 7.5) with 50 mM NaCl, 0.5 mM DTT and 0.04% BSA, and results were monitored continuously by fluorescence decrease of NADH with excitation at 340 nm and emission at 460 nm. Linear regression of the resulting reaction time traces gave reaction velocities.
(§2) For inhibition assay, compounds were first serial diluted in a 1:3 ratio from 10 μM to 0.05 nM using 10× reaction buffer. One of the CDK kinase was then introduced to compounds solution and incubated for 15 min. Finally, the compositions of ATP coupling system were introduced to the resulting solution to initiate the reaction. The final reaction mixture was in 1× reaction assay buffer with 1% DMSO. The half-maximal inhibition concentrations (IC50) for compounds were determined by fitting the plots of reaction velocity against compound concentration with 4-variable IC50 equation. The inhibition constants (Ki) were determined by fitting the same plots with quadratic/Morrison equation. Data were analyzed using commercially available software Graphpad Prism.
(§3) Exemplary results are presented as calculated IC50 values. • A: IC50≤10 nM • B: IC50>10 nM and IC50<100 nM • C: IC50≥100 nM

In another test the target is T2, CDK6/cyclinD3 (Homo sapiens, UniProt Q00534).
T2 construct: purchased Carna Biosciences 04-107
T2 sequence (Q00534 whole entry): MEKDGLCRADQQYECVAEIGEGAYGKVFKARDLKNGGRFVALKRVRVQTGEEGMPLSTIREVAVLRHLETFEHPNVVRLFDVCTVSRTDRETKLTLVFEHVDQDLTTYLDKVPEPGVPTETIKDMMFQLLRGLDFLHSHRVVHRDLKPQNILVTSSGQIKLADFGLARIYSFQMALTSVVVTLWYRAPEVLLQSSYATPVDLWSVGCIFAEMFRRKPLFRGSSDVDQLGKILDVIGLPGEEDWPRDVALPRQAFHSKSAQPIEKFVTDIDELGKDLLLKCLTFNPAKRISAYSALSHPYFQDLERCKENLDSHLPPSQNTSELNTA
T2 sequence (P30281 whole entry partner): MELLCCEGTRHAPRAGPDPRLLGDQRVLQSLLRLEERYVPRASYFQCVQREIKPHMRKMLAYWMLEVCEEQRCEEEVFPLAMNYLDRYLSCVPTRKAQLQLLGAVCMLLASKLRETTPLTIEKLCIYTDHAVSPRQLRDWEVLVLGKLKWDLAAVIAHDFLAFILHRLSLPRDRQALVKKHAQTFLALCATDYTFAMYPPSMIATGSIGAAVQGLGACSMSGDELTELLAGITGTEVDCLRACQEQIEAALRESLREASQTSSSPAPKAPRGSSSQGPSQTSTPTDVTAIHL
As to the kind of experiment: Cyclin-dependent kinase activity assay (continuous ATP coupling assay), CDK6/cyclinD3. The conditions noted are these: CDK6/cyclinD3 25 nM, ATP 500 μM, Rb copeptide 500 μM, 15 min preincubation, pH 7.5, 1% DMSO. On the procedure: as §1, §2, §3

The target of the next test is T3, CDK1/cyclinB1 (Homo sapiens, UniProt P06493).
T3 construct: purchased Carna Biosciences 04-102
T3 sequence (P06493 whole entry): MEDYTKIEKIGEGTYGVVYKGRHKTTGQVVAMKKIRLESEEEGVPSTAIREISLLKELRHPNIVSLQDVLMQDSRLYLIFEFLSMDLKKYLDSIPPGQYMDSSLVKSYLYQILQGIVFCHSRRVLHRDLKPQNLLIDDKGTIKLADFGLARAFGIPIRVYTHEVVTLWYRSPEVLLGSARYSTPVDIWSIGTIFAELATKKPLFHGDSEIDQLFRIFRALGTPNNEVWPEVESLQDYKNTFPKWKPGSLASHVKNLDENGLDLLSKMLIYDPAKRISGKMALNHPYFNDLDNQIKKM
T3 sequence (P14635 whole entry partner): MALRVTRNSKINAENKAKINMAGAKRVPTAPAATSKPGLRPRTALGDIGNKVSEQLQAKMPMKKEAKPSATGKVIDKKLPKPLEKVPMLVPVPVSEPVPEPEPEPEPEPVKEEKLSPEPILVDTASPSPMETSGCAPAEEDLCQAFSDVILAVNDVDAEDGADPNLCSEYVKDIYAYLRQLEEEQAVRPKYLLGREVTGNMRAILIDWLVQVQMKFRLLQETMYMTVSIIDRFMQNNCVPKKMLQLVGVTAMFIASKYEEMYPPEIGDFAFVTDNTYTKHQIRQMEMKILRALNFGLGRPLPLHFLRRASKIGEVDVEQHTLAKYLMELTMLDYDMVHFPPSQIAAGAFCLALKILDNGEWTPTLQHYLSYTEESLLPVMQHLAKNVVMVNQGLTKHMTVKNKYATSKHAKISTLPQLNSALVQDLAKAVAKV
As to the kind of experiment: Cyclin-dependent kinase activity assay (continuous ATP coupling assay), CDK1/cyclinB1. The conditions noted are these: CDK1/cyclinB1 10 nM, ATP 200 μM, Histone1 copeptide 100 μM, 15 min preincubation, pH 7.5, 1% DMSO. Here is the method:
as §1, §2, §3

For the next test, the target named is T4, CDK4/cyclinD3 (Homo sapiens, UniProt P11802).
T4 construct: purchased Carna Biosciences 04-105
T4 sequence (P11802 whole entry): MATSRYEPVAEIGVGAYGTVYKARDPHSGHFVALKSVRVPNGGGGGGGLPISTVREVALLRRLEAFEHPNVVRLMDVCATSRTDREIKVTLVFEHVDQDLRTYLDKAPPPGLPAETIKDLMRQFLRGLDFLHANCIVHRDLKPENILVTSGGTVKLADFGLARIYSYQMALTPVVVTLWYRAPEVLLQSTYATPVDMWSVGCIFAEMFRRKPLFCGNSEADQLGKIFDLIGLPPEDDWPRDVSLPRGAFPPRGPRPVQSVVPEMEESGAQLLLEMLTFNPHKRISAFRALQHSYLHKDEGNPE
T4 sequence (P30281 whole entry partner): as the sequence (P30281 whole entry partner) above
The test can be described thus: Cyclin-dependent kinase activity assay (continuous ATP coupling assay), CDK4/cyclinD3. To be noted: CDK4/cyclinD3 60 nM, ATP 500 μM, Rb copeptide 500 μM, 15 min preincubation, pH 7.5, 1% DMSO. Here is the method: as §1, §2, §3

One may read the IC50 as the concentration that gives 50% inhibition. Low values mean inhibition by little substance, high ones a need for much substance.

For the compound `CNS(=O)(=O)c1ccc(Nc2ncc(C(F)(F)F)c(-n3cc(C4CN(S(C)(=O)=O)C4)cn3)n2)cc1` [Example 98], the IC50 was 0.01 to 0.1 µM against CDK2/cyclinE1, not below 0.1 µM against CDK6/cyclinD3, not below 0.1 µM at CDK1/cyclinB1 and not below 0.1 µM against CDK4/cyclinD3.
As for `O=S1(=O)NCc2cc(Nc3ncc(C(F)(F)F)c(-n4cccn4)n3)ccc21` [Example 42, 1,1-dioxo-N-[4-pyrazol-1-yl-5-(trifluoromethyl)pyrimidin-2-yl]-2,3-dihydro-1,2-benzothiazol-5-amine], the IC50 against CDK2/cyclinE1, against CDK6/cyclinD3, against CDK1/cyclinB1 and against CDK4/cyclinD3 was not below 0.1 µM throughout.
With `Cc1cnc(Nc2ccc(S(=O)(=O)NCCO)cc2)nc1-n1cccn1` [Example 114], the IC50 at CDK2/cyclinE1 is 0.01 to 0.1 µM; on CDK6/cyclinD3, not below 0.1 µM; against CDK1/cyclinB1 it was not below 0.1 µM; on CDK4/cyclinD3, not below 0.1 µM.
With `CNS(=O)(=O)c1ccc(Nc2ncc(C(F)(F)F)c(-n3cc([C@H]4C[C@H](O)C4)cn3)n2)cc1` [Example 106, 4-((4-(4-((1r,3r)-3-hydroxycyclobutyl)-1H-pyrazol-1-yl)-5-(trifluoromethyl)pyrimidin-2-yl)amino)-N-methylbenzenesulfonamide], the IC50 against CDK2/cyclinE1 was 0.01 to 0.1 µM; at CDK6/cyclinD3, not below 0.1 µM; on CDK1/cyclinB1 it was not below 0.1 µM; against CDK4/cyclinD3, not below 0.1 µM.
With `CS(=O)(=O)Nc1ccc(Nc2ncc(C(F)(F)F)c(-n3cccn3)n2)cc1` [Example 120], the IC50 on CDK2/cyclinE1 is 0.01 to 0.1 µM; on CDK6/cyclinD3 it was not below 0.1 µM; on CDK1/cyclinB1, not below 0.1 µM; on CDK4/cyclinD3, not below 0.1 µM.
For the compound `CNS(=O)(=O)c1ccc(Nc2ncc(C(F)(F)F)c(-n3cc(C4CCOC4)cn3)n2)cc1` (single isomer, unassigned) [Example 89], the IC50 on CDK2/cyclinE1 was not above 0.01 µM; against CDK6/cyclinD3 it was 0.01 to 0.1 µM; against CDK1/cyclinB1, not below 0.1 µM; against CDK4/cyclinD3 it was 0.01 to 0.1 µM.
Consider `[2H]C([2H])([2H])NS(=O)(=O)c1ccc(Nc2ncc(C(F)(F)F)c(-n3ccc(C(F)(F)F)n3)n2)cc1` [Example 54], for which the concentration for half-maximal inhibition (IC50) against CDK2/cyclinE1 is 0.01 to 0.1 µM; against CDK6/cyclinD3, not below 0.1 µM; against CDK1/cyclinB1, not below 0.1 µM; against CDK4/cyclinD3, not below 0.1 µM.
On to `CNS(=O)(=O)c1ccc(Nc2ncc(C(F)(F)F)c(-n3cc(C[C@@H](C)O)cn3)n2)cc1` (single isomer, unassigned) [Example 5], for which the IC50 against CDK2/cyclinE1 was not above 0.01 µM; on CDK6/cyclinD3 it was 0.01 to 0.1 µM; on CDK1/cyclinB1, 0.01 to 0.1 µM; against CDK4/cyclinD3, 0.01 to 0.1 µM.
For the compound `CNS(=O)(=O)c1ccc(Nc2ncc(C(F)(F)F)c(-n3cc(C(C)(C)C#N)cn3)n2)cc1` [Example 49, 4-[[4-[4-(1-cyano-1-methyl-ethyl)pyrazol-1-yl]-5-(trifluoromethyl)pyrimidin-2-yl]amino]-N-methyl-benzene sulfonamide], the IC50 on CDK2/cyclinE1, at CDK6/cyclinD3, on CDK1/cyclinB1 and at CDK4/cyclinD3 was 0.01 to 0.1 µM each time.
As for `[2H]C([2H])([2H])NS(=O)(=O)c1ccc(Nc2ncc(C(F)(F)F)c(-n3cc(CCC(C)(C)O)cn3)n2)cc1` [Example 61], the IC50 at CDK2/cyclinE1 was not above 0.01 µM; at CDK6/cyclinD3 it was not below 0.1 µM; at CDK1/cyclinB1, not below 0.1 µM; on CDK4/cyclinD3, 0.01 to 0.1 µM.
Turning to `O=S(=O)(NCCOC1CC1)c1ccc(Nc2ncc(C(F)(F)F)c(-n3cccn3)n2)cc1` [Example 129], the IC50 at CDK2/cyclinE1, against CDK6/cyclinD3, against CDK1/cyclinB1 and against CDK4/cyclinD3 was not below 0.1 µM throughout.
For `CNS(=O)(=O)c1ccc(Nc2ncc(C(F)(F)F)c(-n3cc(C4CCCN4)cn3)n2)cc1` (single isomer, unassigned) [Example 92], the IC50 against CDK2/cyclinE1 was not above 0.01 µM; on CDK6/cyclinD3, 0.01 to 0.1 µM; at CDK1/cyclinB1 it was 0.01 to 0.1 µM; on CDK4/cyclinD3 it was not above 0.01 µM.
Take `CC(C)(CO)NS(=O)(=O)c1ccc(Nc2ncc(C(F)(F)F)c(-n3cccn3)n2)cc1` [Example 134]: the IC50 is not above 0.01 µM against CDK2/cyclinE1, not below 0.1 µM at CDK6/cyclinD3, not below 0.1 µM against CDK1/cyclinB1 and not below 0.1 µM at CDK4/cyclinD3.
In the case of `CNS(=O)(=O)c1ccc(Nc2ncc(C(F)(F)F)c(-n3cc(C4CN(C(C)=O)C4)cn3)n2)cc1` [Example 99], the IC50 was 0.01 to 0.1 µM against CDK2/cyclinE1, not below 0.1 µM at CDK6/cyclinD3, not below 0.1 µM against CDK1/cyclinB1 and not below 0.1 µM at CDK4/cyclinD3.
Consider `CC(C)(O)Cc1cnn(-c2nc(Nc3ccc(S(N)(=O)=O)cc3)ncc2C(F)(F)F)c1` [Example 71], for which the IC50 was not above 0.01 µM against CDK2/cyclinE1, 0.01 to 0.1 µM against CDK6/cyclinD3, 0.01 to 0.1 µM against CDK1/cyclinB1 and not above 0.01 µM on CDK4/cyclinD3.
On to `CNS(=O)(=O)c1ccc(Nc2ncc(C(F)(F)F)c(-n3cc(N4CC(O)C4)cn3)n2)cc1` [Example 100], for which the IC50 against CDK2/cyclinE1 is not above 0.01 µM; on CDK6/cyclinD3, not below 0.1 µM; against CDK1/cyclinB1 it was 0.01 to 0.1 µM; against CDK4/cyclinD3, not below 0.1 µM.
In the case of `CNS(=O)(=O)c1ccc(Nc2ncc(C(F)(F)F)c(-n3cc(-c4ccoc4)cn3)n2)cc1` [Example 86], the IC50 on CDK2/cyclinE1 is 0.01 to 0.1 µM; at CDK6/cyclinD3 it was not below 0.1 µM; at CDK1/cyclinB1, not below 0.1 µM; on CDK4/cyclinD3, not below 0.1 µM.
Take `CNS(=O)(=O)c1ccc(Nc2nccc(-n3cc(CC(C)(C)O)cn3)n2)cc1` [Example 67]: the IC50 was 0.01 to 0.1 µM against CDK2/cyclinE1, not below 0.1 µM on CDK6/cyclinD3, not below 0.1 µM against CDK1/cyclinB1 and not below 0.1 µM against CDK4/cyclinD3.
`CNS(=O)(=O)c1ccc(Nc2ncc(C(F)(F)F)c(-n3cc(CN4CCNCC4)cn3)n2)cc1` [Example 84]: the IC50 at CDK2/cyclinE1 is 0.01 to 0.1 µM; against CDK6/cyclinD3, not below 0.1 µM; at CDK1/cyclinB1 it was not below 0.1 µM; on CDK4/cyclinD3 it was not below 0.1 µM.
As to `O=S(=O)(NCC1(O)CC1)c1ccc(Nc2ncc(C(F)(F)F)c(-n3cccn3)n2)cc1` [Example 131], the IC50 on CDK2/cyclinE1 was not above 0.01 µM; against CDK6/cyclinD3, not below 0.1 µM; on CDK1/cyclinB1 it was not below 0.1 µM; on CDK4/cyclinD3, not below 0.1 µM.
Turning to `CNS(=O)(=O)c1ccc(Nc2ncc(C)c(-n3cc(CC(C)(C)O)cn3)n2)cc1` [Example 63], the IC50 was 0.01 to 0.1 µM against CDK2/cyclinE1, 0.01 to 0.1 µM against CDK6/cyclinD3, not below 0.1 µM on CDK1/cyclinB1 and 0.01 to 0.1 µM against CDK4/cyclinD3.
Take `O=S(=O)(NCCO)c1ccc(Nc2ncc(C(F)(F)F)c(-n3cccn3)n2)cc1` [Example 36, 4-((4-(1H-pyrazol-1-yl)-5-(trifluoromethyl)pyrimidin-2-yl)amino)-N-(2-hydroxyethyl) benzene sulfonamide]: the IC50 at CDK2/cyclinE1 was not above 0.01 µM; on CDK6/cyclinD3 it was not below 0.1 µM; against CDK1/cyclinB1, 0.01 to 0.1 µM; at CDK4/cyclinD3 it was not below 0.1 µM.
As to `O=S(=O)(NC1COC1)c1ccc(Nc2ncc(C(F)(F)F)c(-n3cccn3)n2)cc1` [Example 40], the IC50 against CDK2/cyclinE1 is not above 0.01 µM; at CDK6/cyclinD3 it was not below 0.1 µM; on CDK1/cyclinB1 it was not below 0.1 µM; against CDK4/cyclinD3 it was not below 0.1 µM.
In the case of `CC(C)(O)CNS(=O)(=O)c1ccc(Nc2ncc(C(F)(F)F)c(-n3cccn3)n2)cc1` [Example 111], the IC50 on CDK2/cyclinE1 is not above 0.01 µM; against CDK6/cyclinD3 it was not below 0.1 µM; against CDK1/cyclinB1 it was not below 0.1 µM; at CDK4/cyclinD3 it was not below 0.1 µM.
With `Cc1cc(Nc2ncc(C(F)(F)F)c(-n3cccn3)n2)ccc1S(=O)(=O)NCCO` [Example 125], the IC50 was 0.01 to 0.1 µM against CDK2/cyclinE1, not below 0.1 µM against CDK6/cyclinD3, not below 0.1 µM against CDK1/cyclinB1 and not below 0.1 µM against CDK4/cyclinD3.
Take `CN1CCN(S(=O)(=O)c2ccc(Nc3ncc(C(F)(F)F)c(-n4cccn4)n3)cc2)CC1` [Example 38]: the IC50 against CDK2/cyclinE1 was 0.01 to 0.1 µM; against CDK6/cyclinD3, not below 0.1 µM; on CDK1/cyclinB1 it was not below 0.1 µM; against CDK4/cyclinD3, not below 0.1 µM.
In the case of `O=S(=O)(NCCO)c1ccc(Nc2ncc(C(F)(F)F)c(-n3cccn3)n2)c(F)c1` [Example 124], the half-inhibitory concentration (IC50) against CDK2/cyclinE1 is not above 0.01 µM; on CDK6/cyclinD3, not below 0.1 µM; on CDK1/cyclinB1, not below 0.1 µM; at CDK4/cyclinD3, not below 0.1 µM.
Turning to `CNS(=O)(=O)c1ccc(Nc2ncc(C(F)(F)F)c(-n3cc([C@@H]4CC[C@@H](O)C4)cn3)n2)cc1` (single isomer, unassigned) [Example 78], the IC50 against CDK2/cyclinE1 is not above 0.01 µM; at CDK6/cyclinD3 it was 0.01 to 0.1 µM; at CDK1/cyclinB1 it was not below 0.1 µM; on CDK4/cyclinD3, 0.01 to 0.1 µM.
